# Laboratory results from patent publication US7118895B2, “Process for producing aglycon by using diglycosidase and flavor-improved food containing the aglycon and converting agent to be used in the process” (Amano Enzyme Inc., priority 2000, dated 2006).
# Tested on: Crude diglycosidase
# Assay: Examination of pH in the conversion into isoflavone aglycons by diglycosidase using soybean materials
# Type: biochemical, Penicillium multicolor IAM7153
# Parameters: Decomposition efficiency of genistin family in soymilk / Decomposition efficiency of genistin family in defatted soybean / Decomposition efficiency of daidzin family in defatted soybean: concentration or dose not given beside the values
# Conditions: for Decomposition efficiency of daidzin family in roasted soy flour: 55° C.
# Method in brief: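 HPLC readout: isoflavone glycosides vs aglycons. Substrates: 50 mg soy material (roasted flour, soymilk, defatted bean, concentrated protein), pH 2–11 (HCl/NaOH). Crude diglycosidase solution 1.88 AU/mL, matched pH; 55° C; quenched with ethanol at 0/1/3/6 h; centrifuged 15,000 rpm, 4° C, 10 min.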
# [1] = pH4.8, heat treatment of enzyme: no, reaction time 0 h
# [2] = pH4.8, heat treatment of enzyme: no, reaction time 1 h
# [3] = pH4.8, heat treatment of enzyme: no, reaction time 3 h
# [4] = pH4.8, heat treatment of enzyme: no, reaction time 6 h
# [5] = pH4.8, heat treatment of enzyme: yes, reaction time 6 h
# [6] = pH6.6, heat treatment of enzyme: no, reaction time 0 h
# [7] = pH6.6, heat treatment of enzyme: no, reaction time 1 h
# [8] = pH6.6, heat treatment of enzyme: no, reaction time 3 h
# [9] = pH6.6, heat treatment of enzyme: no, reaction time 6 h
# [10] = pH6.6, heat treatment of enzyme: yes, reaction time 6 h
compound,measurement,setting,value
O=c1c(-c2ccc(O)cc2)coc2cc(O)ccc12 [daidzein],Decomposition efficiency of daidzin family in concentrated soybean protein,"pH1.6, heat treatment of enzyme: no, reaction time 0 h",3.0%
same,Decomposition efficiency of daidzin family in concentrated soybean protein,"pH1.6, heat treatment of enzyme: no, reaction time 1 h",3.3%
same,Decomposition efficiency of daidzin family in concentrated soybean protein,"pH1.6, heat treatment of enzyme: no, reaction time 3 h",3.3%
same,Decomposition efficiency of daidzin family in concentrated soybean protein,"pH1.6, heat treatment of enzyme: no, reaction time 6 h",3.4%
same,Decomposition efficiency of daidzin family in concentrated soybean protein,"pH1.6, heat treatment of enzyme: yes, reaction time 6 h",2.9%
same,Decomposition efficiency of daidzin family in roasted soy flour,"pH2, heat treatment of enzyme no, reaction time 0 h",3.5
same,Decomposition efficiency of daidzin family in roasted soy flour,"pH2, heat treatment of enzyme no, reaction time 1 h",5.4
same,Decomposition efficiency of daidzin family in roasted soy flour,"pH2, heat treatment of enzyme no, reaction time 3 h",4.8
same,Decomposition efficiency of daidzin family in roasted soy flour,"pH2, heat treatment of enzyme no, reaction time 6 h",4.5
same,Decomposition efficiency of daidzin family in roasted soy flour,"pH2, heat treatment of enzyme yes, reaction time 6 h",3.8
same,Decomposition efficiency of daidzin family in soymilk,"pH2.3, heat treatment of enzyme: no, reaction time 0 h",10.5%
same,Decomposition efficiency of daidzin family in soymilk,"pH2.3, heat treatment of enzyme: no, reaction time 1 h",45.3%
same,Decomposition efficiency of daidzin family in soymilk,"pH2.3, heat treatment of enzyme: no, reaction time 3 h",48.9%
same,Decomposition efficiency of daidzin family in soymilk,"pH2.3, heat treatment of enzyme: no, reaction time 6 h",51.5%
same,Decomposition efficiency of daidzin family in soymilk,"pH2.3, heat treatment of enzyme: yes, reaction time 6 h",10.2%
same,Decomposition efficiency of daidzin family in defatted soybean,"pH2.6, heat treatment of enzyme: no, reaction time 0 h",13.2%
same,Decomposition efficiency of daidzin family in defatted soybean,"pH2.6, heat treatment of enzyme: no, reaction time 1 h",21.3%
same,Decomposition efficiency of daidzin family in defatted soybean,"pH2.6, heat treatment of enzyme: no, reaction time 3 h",40.9%
same,Decomposition efficiency of daidzin family in defatted soybean,"pH2.6, heat treatment of enzyme: no, reaction time 6 h",42.9%
same,Decomposition efficiency of daidzin family in defatted soybean,"pH2.6, heat treatment of enzyme: yes, reaction time 6 h",13.0%
same,Decomposition efficiency of daidzin family in concentrated soybean protein,"pH2.7, heat treatment of enzyme: no, reaction time 0 h",3.0%
same,Decomposition efficiency of daidzin family in concentrated soybean protein,"pH2.7, heat treatment of enzyme: no, reaction time 1 h",40.7%
same,Decomposition efficiency of daidzin family in concentrated soybean protein,"pH2.7, heat treatment of enzyme: no, reaction time 3 h",41.6%
same,Decomposition efficiency of daidzin family in concentrated soybean protein,"pH2.7, heat treatment of enzyme: no, reaction time 6 h",45.0%
same,Decomposition efficiency of daidzin family in concentrated soybean protein,"pH2.7, heat treatment of enzyme: yes, reaction time 6 h",3.2%
same,Decomposition efficiency of daidzin family in roasted soy flour,"pH3, heat treatment of enzyme no, reaction time 0 h",3.5
same,Decomposition efficiency of daidzin family in roasted soy flour,"pH3, heat treatment of enzyme no, reaction time 1 h",54.0
same,Decomposition efficiency of daidzin family in roasted soy flour,"pH3, heat treatment of enzyme no, reaction time 3 h",60.4
same,Decomposition efficiency of daidzin family in roasted soy flour,"pH3, heat treatment of enzyme no, reaction time 6 h",59.3
same,Decomposition efficiency of daidzin family in roasted soy flour,"pH3, heat treatment of enzyme yes, reaction time 6 h",3.7
same,Decomposition efficiency of daidzin family in defatted soybean,"pH3.4, heat treatment of enzyme: no, reaction time 0 h",13.2%
same,Decomposition efficiency of daidzin family in defatted soybean,"pH3.4, heat treatment of enzyme: no, reaction time 1 h",60.6%
same,Decomposition efficiency of daidzin family in defatted soybean,"pH3.4, heat treatment of enzyme: no, reaction time 3 h",65.5%
same,Decomposition efficiency of daidzin family in defatted soybean,"pH3.4, heat treatment of enzyme: no, reaction time 6 h",71.0%
same,Decomposition efficiency of daidzin family in defatted soybean,"pH3.4, heat treatment of enzyme: yes, reaction time 6 h",15.1%
same,Decomposition efficiency of daidzin family in soymilk,"pH3.5, heat treatment of enzyme: no, reaction time 0 h",10.5%
same,Decomposition efficiency of daidzin family in soymilk,"pH3.5, heat treatment of enzyme: no, reaction time 1 h",64.4%
same,Decomposition efficiency of daidzin family in soymilk,"pH3.5, heat treatment of enzyme: no, reaction time 3 h",84.9%
same,Decomposition efficiency of daidzin family in soymilk,"pH3.5, heat treatment of enzyme: no, reaction time 6 h",92.6%
same,Decomposition efficiency of daidzin family in soymilk,"pH3.5, heat treatment of enzyme: yes, reaction time 6 h",10.6%
same,Decomposition efficiency of daidzin family in concentrated soybean protein,"pH3.7, heat treatment of enzyme: no, reaction time 0 h",3.0%
same,Decomposition efficiency of daidzin family in concentrated soybean protein,"pH3.7, heat treatment of enzyme: no, reaction time 1 h",58.4%
same,Decomposition efficiency of daidzin family in concentrated soybean protein,"pH3.7, heat treatment of enzyme: no, reaction time 3 h",67.0%
same,Decomposition efficiency of daidzin family in concentrated soybean protein,"pH3.7, heat treatment of enzyme: no, reaction time 6 h",74.8%
same,Decomposition efficiency of daidzin family in concentrated soybean protein,"pH3.7, heat treatment of enzyme: yes, reaction time 6 h",3.1%
same,Decomposition efficiency of daidzin family in roasted soy flour,"pH4, heat treatment of enzyme no, reaction time 0 h",3.5
same,Decomposition efficiency of daidzin family in roasted soy flour,"pH4, heat treatment of enzyme no, reaction time 1 h",65.6
same,Decomposition efficiency of daidzin family in roasted soy flour,"pH4, heat treatment of enzyme no, reaction time 3 h",79.5
same,Decomposition efficiency of daidzin family in roasted soy flour,"pH4, heat treatment of enzyme no, reaction time 6 h",88.9
same,Decomposition efficiency of daidzin family in roasted soy flour,"pH4, heat treatment of enzyme yes, reaction time 6 h",3.5
same,Decomposition efficiency of daidzin family in defatted soybean,[1],15.7%
same,Decomposition efficiency of daidzin family in soymilk,[1],9.0%
same,Decomposition efficiency of daidzin family in defatted soybean,[2],59.5%
same,Decomposition efficiency of daidzin family in soymilk,[2],52.6%
same,Decomposition efficiency of daidzin family in defatted soybean,[3],63.3%
same,Decomposition efficiency of daidzin family in soymilk,[3],66.1%
same,Decomposition efficiency of daidzin family in defatted soybean,[4],69.5%
same,Decomposition efficiency of daidzin family in soymilk,[4],79.7%
same,Decomposition efficiency of daidzin family in defatted soybean,[5],24.5%
same,Decomposition efficiency of daidzin family in soymilk,[5],9.1%
same,Decomposition efficiency of daidzin family in roasted soy flour,"pH5, heat treatment of enzyme no, reaction time 0 h",3.5
same,Decomposition efficiency of daidzin family in roasted soy flour,"pH5, heat treatment of enzyme no, reaction time 1 h",61.5
same,Decomposition efficiency of daidzin family in roasted soy flour,"pH5, heat treatment of enzyme no, reaction time 3 h",75.3
same,Decomposition efficiency of daidzin family in roasted soy flour,"pH5, heat treatment of enzyme no, reaction time 6 h",84.8
same,Decomposition efficiency of daidzin family in roasted soy flour,"pH5, heat treatment of enzyme yes, reaction time 6 h",4.4
same,Decomposition efficiency of daidzin family in concentrated soybean protein,"pH5.1, heat treatment of enzyme: no, reaction time 0 h",3.0%
same,Decomposition efficiency of daidzin family in concentrated soybean protein,"pH5.1, heat treatment of enzyme: no, reaction time 1 h",56.6%
same,Decomposition efficiency of daidzin family in concentrated soybean protein,"pH5.1, heat treatment of enzyme: no, reaction time 3 h",63.0%
same,Decomposition efficiency of daidzin family in concentrated soybean protein,"pH5.1, heat treatment of enzyme: no, reaction time 6 h",68.8%
same,Decomposition efficiency of daidzin family in concentrated soybean protein,"pH5.1, heat treatment of enzyme: yes, reaction time 6 h",3.2%
same,Decomposition efficiency of daidzin family in defatted soybean,"pH5.4, heat treatment of enzyme: no, reaction time 0 h",15.7%
same,Decomposition efficiency of daidzin family in defatted soybean,"pH5.4, heat treatment of enzyme: no, reaction time 1 h",55.8%
same,Decomposition efficiency of daidzin family in defatted soybean,"pH5.4, heat treatment of enzyme: no, reaction time 3 h",58.5%
same,Decomposition efficiency of daidzin family in defatted soybean,"pH5.4, heat treatment of enzyme: no, reaction time 6 h",63.1%
same,Decomposition efficiency of daidzin family in defatted soybean,"pH5.4, heat treatment of enzyme: yes, reaction time 6 h",55.1%
same,Decomposition efficiency of daidzin family in soymilk,"pH6.2, heat treatment of enzyme: no, reaction time 0 h",9.0%
same,Decomposition efficiency of daidzin family in soymilk,"pH6.2, heat treatment of enzyme: no, reaction time 1 h",45.9%
same,Decomposition efficiency of daidzin family in soymilk,"pH6.2, heat treatment of enzyme: no, reaction time 3 h",53.6%
same,Decomposition efficiency of daidzin family in soymilk,"pH6.2, heat treatment of enzyme: no, reaction time 6 h",58.1%
same,Decomposition efficiency of daidzin family in soymilk,"pH6.2, heat treatment of enzyme: yes, reaction time 6 h",9.7%
same,Decomposition efficiency of daidzin family in roasted soy flour,"pH6.5, heat treatment of enzyme no, reaction time 0 h",3.4
same,Decomposition efficiency of daidzin family in roasted soy flour,"pH6.5, heat treatment of enzyme no, reaction time 1 h",54.6
same,Decomposition efficiency of daidzin family in roasted soy flour,"pH6.5, heat treatment of enzyme no, reaction time 3 h",60.8
same,Decomposition efficiency of daidzin family in roasted soy flour,"pH6.5, heat treatment of enzyme no, reaction time 6 h",65.6
same,Decomposition efficiency of daidzin family in roasted soy flour,"pH6.5, heat treatment of enzyme yes, reaction time 6 h",4.7
same,Decomposition efficiency of daidzin family in concentrated soybean protein,[6],3.0%
same,Decomposition efficiency of daidzin family in defatted soybean,[6],13.2%
same,Decomposition efficiency of daidzin family in concentrated soybean protein,[7],51.0%
same,Decomposition efficiency of daidzin family in defatted soybean,[7],54.1%
same,Decomposition efficiency of daidzin family in concentrated soybean protein,[8],57.1%
same,Decomposition efficiency of daidzin family in defatted soybean,[8],56.0%
same,Decomposition efficiency of daidzin family in concentrated soybean protein,[9],58.8%
same,Decomposition efficiency of daidzin family in defatted soybean,[9],58.2%
same,Decomposition efficiency of daidzin family in concentrated soybean protein,[10],3.2%
same,Decomposition efficiency of daidzin family in defatted soybean,[10],49.5%
same,Decomposition efficiency of daidzin family in soymilk,"pH7.2, heat treatment of enzyme: no, reaction time 0 h",9.0%
same,Decomposition efficiency of daidzin family in soymilk,"pH7.2, heat treatment of enzyme: no, reaction time 1 h",43.6%
same,Decomposition efficiency of daidzin family in soymilk,"pH7.2, heat treatment of enzyme: no, reaction time 3 h",47.6%
same,Decomposition efficiency of daidzin family in soymilk,"pH7.2, heat treatment of enzyme: no, reaction time 6 h",51.8%
same,Decomposition efficiency of daidzin family in soymilk,"pH7.2, heat treatment of enzyme: yes, reaction time 6 h",10.2%
same,Decomposition efficiency of daidzin family in defatted soybean,"pH7.8, heat treatment of enzyme: no, reaction time 0 h",13.3%
same,Decomposition efficiency of daidzin family in defatted soybean,"pH7.8, heat treatment of enzyme: no, reaction time 1 h",43.1%
same,Decomposition efficiency of daidzin family in defatted soybean,"pH7.8, heat treatment of enzyme: no, reaction time 3 h",48.4%
same,Decomposition efficiency of daidzin family in defatted soybean,"pH7.8, heat treatment of enzyme: no, reaction time 6 h",51.9%
same,Decomposition efficiency of daidzin family in defatted soybean,"pH7.8, heat treatment of enzyme: yes, reaction time 6 h",21.7%
same,Decomposition efficiency of daidzin family in roasted soy flour,"pH8.5, heat treatment of enzyme no, reaction time 0 h",3.8
same,Decomposition efficiency of daidzin family in roasted soy flour,"pH8.5, heat treatment of enzyme no, reaction time 1 h",36.9
same,Decomposition efficiency of daidzin family in roasted soy flour,"pH8.5, heat treatment of enzyme no, reaction time 3 h",46.4
same,Decomposition efficiency of daidzin family in roasted soy flour,"pH8.5, heat treatment of enzyme no, reaction time 6 h",51.8
same,Decomposition efficiency of daidzin family in roasted soy flour,"pH8.5, heat treatment of enzyme yes, reaction time 6 h",3.9
same,Decomposition efficiency of daidzin family in concentrated soybean protein,"pH8.6, heat treatment of enzyme: no, reaction time 0 h",3.2%
same,Decomposition efficiency of daidzin family in concentrated soybean protein,"pH8.6, heat treatment of enzyme: no, reaction time 1 h",9.9%
same,Decomposition efficiency of daidzin family in concentrated soybean protein,"pH8.6, heat treatment of enzyme: no, reaction time 3 h",15.9%
same,Decomposition efficiency of daidzin family in concentrated soybean protein,"pH8.6, heat treatment of enzyme: no, reaction time 6 h",27.4%
same,Decomposition efficiency of daidzin family in concentrated soybean protein,"pH8.6, heat treatment of enzyme: yes, reaction time 6 h",3.2%
same,Decomposition efficiency of daidzin family in soymilk,"pH11.6, heat treatment of enzyme: no, reaction time 0 h",8.7%
same,Decomposition efficiency of daidzin family in soymilk,"pH11.6, heat treatment of enzyme: no, reaction time 1 h",43.6%
same,Decomposition efficiency of daidzin family in soymilk,"pH11.6, heat treatment of enzyme: no, reaction time 3 h",49.6%
same,Decomposition efficiency of daidzin family in soymilk,"pH11.6, heat treatment of enzyme: no, reaction time 6 h",52.3%
same,Decomposition efficiency of daidzin family in soymilk,"pH11.6, heat treatment of enzyme: yes, reaction time 6 h",9.3%
